Assay results reported in patent publication US20100179192A1, “USE OF NITRIC OXIDE RELEASING COMPOUNDS IN THE TREATMENT OF CHRONIC PAIN” (NICOX S.A., priority 2007, published 2010).

Test system: hyperalgesic responses following chronic constriction injuries of the rat sciatic nerve
Assay: Chronic constriction injury (CCI)-induced mechanical hyperalgesia in rats (modified Randall-Selitto method)
Format: in vivo
Settings: for Contra-PWT30 min (paw withdrawal threshold, contralateral unlesioned paw) / Ipsi-PWT30 min (paw withdrawal threshold, CCI-lesioned ipsilateral paw) / PWT30 min: 30 min after treatment; for Contra-PWT30 min (paw withdrawal threshold, contralateral unlesioned paw) / Ipsi-PWT30 min (paw withdrawal threshold, CCI-lesioned ipsilateral paw): cut-off 240 g; for Ipsi-PWT30 min (paw withdrawal threshold, CCI-lesioned ipsilateral paw): 7 days after sciatic nerve ligation; for PWT30 min / PWT60 min: Table II, 175 μmol/kg sc each agent, alone or in combination; for PWT60 min: 60 min after treatment
Description: The efficacy of nitrooxyderivatives of antioxidant compounds of formula (I) in the treatment of neuropathic pain was evaluated in the model of hyperalgesic responses following chronic constriction injuries of the rat sciatic nerve. The pharmacological activity of the compounds of formula (I) was compared to that of the known analgesic drugs. The parent not-derivatized antioxidant drug was used as reference. The efficacy of the equimolar combination of compounds of formula (I) and analgesic drugs selected between the group of gabapentin, tiagabine and pregabalin was also evaluated, on the same experimental model.
The method described by Bennet and Xie (1988) was generally followed. Rats were anesthetized with chloral hydrate (380 mg/kg ip, Sigma). The right common sciatic nerve was exposed at the level of the middle of the high by blunt dissection through the biceps femoris. Proximal to the sciatic's trifurcation, about 12 mm of nerve was freed of adhering tissue and four ligatures (3/0 silk suture) were tied loosely around it with about 1 mm spacings. Ligatures were tied such that the diameter of the nerve was only barely constricted. […] The incision was closed in layers. The experiments were then carried out 1 week after surgery. Mechanical hyperalgesia was determined with an analgesimeter (Ugo Basile, Italy), using the modified Randall-Selitto method. Briefly, a conical stylus with a hemispherical tip was places upon the middle of hind paw dorsum. The animal was gently restrained and calibrated pressure of gradually increasing intensity was applied until the rat withdrew the hindpaw. Threshold pressure (g) of both hindpaws was determined every 15 minutes, with two measurements before the treatments (pretest), and from 15 to 60 minutes after treatment. An arbitrary cut-off value of 240 g was adopted.

Compound: NCC1(CC(=O)O)CCCCC1 [Gabapentin]
- Contra-PWT30 min (paw withdrawal threshold, contralateral unlesioned paw) (175 μmol/kg sc): 84.3 ± 3.9 g
- Ipsi-PWT30 min (paw withdrawal threshold, CCI-lesioned ipsilateral paw) (175 μmol/kg sc): 75.1 ± 9.8 g
- PWT30 min: 75.1 ± 9.8 g
- PWT60 min: 37.6 ± 7.0 g

Compound: COc1cc(/C=C/C(=O)OCCCCO[N+](=O)[O-])ccc1O [Ferulic acid 4-(nitrooxy)butyl ester, Ferulic Acid 4-(nitrooxy)butyl ester]
- Contra-PWT30 min (paw withdrawal threshold, contralateral unlesioned paw) (175 μmol/kg sc): 98.5 ± 4.8 g
- sedative effect (175 μmol/kg sc, observed in CCI experiment): did not induce any appreciable sedative effect
- Ipsi-PWT30 min (paw withdrawal threshold, CCI-lesioned ipsilateral paw) (175 μmol/kg sc): 76.3 ± 4.8 g
- PWT30 min: 76.3 ± 4.8 g
- PWT60 min: 37.5 ± 5.9 g

Compound: COc1cc(/C=C/C(=O)O)ccc1O [Ferulic acid]
- Contra-PWT30 min (paw withdrawal threshold, contralateral unlesioned paw) (175 μmol/kg sc): 71.4 ± 11.1 g
- Ipsi-PWT30 min (paw withdrawal threshold, CCI-lesioned ipsilateral paw) (175 μmol/kg sc): 37.9 ± 15.5 g
